US4889860A (Nova Pharmaceutical Corporation, priority 1987, dated 1989)
Entries after “also recorded” stand apart in the source; their conditions may differ.

Assays:
[1] = biological target: T1, kappa-type opioid receptor (Cavia porcellus, UniProt P41144); assay: inhibition of specific [^3 H] EKC binding to guinea pig cerebellum membrane
T1 construct: using guiniea pig cerebellum membrane; from tissue; host or cells: guinea pig cerebellum membranes
Procedure: (§1) The interaction of some of the novel compounds with mu, delta and kappa - type opioid receptors present in brain membranes was examined in vitro. […] DAGO (mu-type receptor), or [^3 H] DADLE (Delta-type receptor) using rat forebrain membranes and [^3 H] EKC (kappa-type receptor) using guiniea pig cerebellum membrane was determined. Computer assisted analysis (EBDA) was used to determine apparent Ki values for the various compounds.
(§2) The values represent the MEAN±S.E.M. of the Ki(nM) for each compound to inhibit specific binding of the indicated ligand. Each value represents the mean of three individual experiments performed on separate occasions.

mu-type opioid receptor = biological target: T2, mu-type opioid receptor (Rattus norvegicus, UniProt P33535); assay: inhibition of specific [^3 H] DAGO binding to rat forebrain membranes; conditions: (Ki) nM, μ receptor (Rat Forebrain), Table 6; [^3 H] DAGO, mean of three experiments
T2 construct: using rat forebrain membranes; from tissue; host or cells: rat forebrain membranes
Procedure: (§3) The interaction of some of the novel compounds with mu and delta-type opioid receptors present in brain membranes was examined in vitro. […] DAGO (mu-type receptor) or [^3 H] DADLE (delta-type receptor) was determined using rat forebrain membranes. Computer assisted analysis (EBDA) was used to determine apparent Ki values for the various compounds.
(§4) Values represent the MEAN±S.E.M. of the Ki(nM) for each compound to inhibit specific binding of the indicated ligand to rat brain membranes. The values are from two-five separate experiments and were calculated according to the method of Cheng and Prusoff [Biochem. Pharmacol. 1973, 22, 3099-3108] together with the EBDA Program. Numbers in parentheses are the mean Hill coefficients for each compound to inhibit ligand binding.
as §4, with “two.div.seven” for “two-five”, “Prusoff” for “Prusoff [Biochem. Pharmacol. 1973, 22, 3099-3108]”, “program.” for “Program.”, “binding. N.D.=not determined” for “binding.”
as §1, §2

tail flick response = assay: radiant heat tail flick analgesia in rats; type: in vivo, rat
Procedure: The analgesic properties of the compounds prepared in accordance with Examples III and IV were evaluated in rats using the radiant heat and tail flick paradigm. […] Flick latencies in FIGS. 11-13 were determined at 30 minute intervals through 3.5 h and the data was expressed as a percentage of the maximum possible effect (% MPE). A 15 sec. cut-off latency was used to minimize tissue damage. The values shown are the mean values for 6 rats.
A 15 sec. cut-off latency was used to prevent tissue damage.
The analgesic properties of compounds XXII and XXIII were evaluated in rats using the writhing assay and tail flick paradigm. […] The writhing assay which uses a chemical stimulus to produce pain, is believed to be more sensitive to kappa agonist activity than other measures of analgesia which uses a heat stimulus (Dykstra, L.A. Behavioral Pharmacology: The Current Status, N.Y.: Allan R. Liss. Inc. 1985).

[2] = biological target: delta-type opioid receptor (Rattus norvegicus, UniProt P33533); assay: inhibition of specific [^3 H] DADLE binding to rat forebrain membranes; conditions: read-out: (Ki) nM, δ receptor (Rat Forebrain); Table 6; [^3 H] DADLE, mean of three experiments
Procedure: as §3, §4
as §4, with “two.div.seven” for “two-five”, “Prusoff” for “Prusoff [Biochem. Pharmacol. 1973, 22, 3099-3108]”, “program.” for “Program.”, “binding. N.D.=not determined” for “binding.”
as §1, §2

writhing response = assay: animal or person; type: in vivo, mouse; conditions: for ED50: Mus musculus, Table 7, read-out: ED50, Acetic Acid Induced Writhing in the Mouse
[3] = tested on: oxymorphonazine (OMZ)-induced analgesia; assay: antagonism of oxymorphonazine (OMZ)-induced analgesia (tail flick) in rats; type: in vivo, rat; conditions: for ED50 / ED100: Rattus norvegicus, sc, Table 8; for ED50 / ED100 / Percent Antagonism at 1 Hr / Percent Antagonism at 1.5 Hr / Percent Antagonism at 2 Hr / Percent Antagonism at 3 Hr / Percent Antagonism at 4 Hr / Percent Antagonism at 6 Hr / Percent Antagonism at 8 Hr: S.C.; for ED50: read-out: ED 50, oxymorphonazine antagonism; for ED100: read-out: ED 100, oxymorphonazine antagonism; for Percent Antagonism at 1 Hr / Percent Antagonism at 1.5 Hr / Percent Antagonism at 2 Hr / Percent Antagonism at 3 Hr / Percent Antagonism at 4 Hr / Percent Antagonism at 6 Hr / Percent Antagonism at 8 Hr: dose tested (mg/kg): Naltrexone 0.5, Nalmefene 1.0, XI 10.0, XII 2.5, XIII 0.5, XIV 5.0
Procedure: The compound of Example XII was evaluated for its potency and duration in the antagonism of oxymorphonazine (OMZ)-induced analgesia. […] Data represent the mean SEM of 4-5 animals per group.
(Cowan A. Trendsin Pharmacology Science, 7:69-72, 1986) With this test the intracerebroventricular administration of bombesin produces a characteristic scratching response.

[4] = water intake in 24 hr food-deprived rats; type: in vivo, rat; conditions: for effect on water intake: S.C.; for Water Intake: Table 3, 24 hr; for Cumulative Water Intake: Table 5
Procedure: (§5) Rats were given water and powdered food ad lib for 8 days until food intake had stabilized, and body weight and food and water intakes were recorded at the same time every day. Animals were assigned to treatment groups matched on the basis of their 24 hr food consumption on the last baseline day, and rats were food deprived for 24 hr immediately before injection of the test compound. […] The compound of Example XII was injected S.C. at doses of 1.15, 2.31, 11.55 and 23.09 μmol/kg, in a volume of 4 ml/kg of 0.3% acetic acid. Controls were injected with the vehicle solutions in the appropriate volumes. Food and water intakes were measured at 1, 3 and 24 hr after treatment. Data for each measure and time point were analyzed by one-way analysis of variance (ANOVA), and post-hoc comparisons were performed using Dunnett's test in order to compare the control mean to each of the treatment means.
(§6) Rats were given water and powdered food for 8 days, and following this,
(§7) Testing was performed as described above, and baseline measurements were recorded for 7 days. […] The compound of Example XII was injected at doses of 11.55, 23.09, 46.19 and 92.38 μmol/kg by suspension in a solution of 1:1 DMSO:water in a volume of 3 ml/kg. Food and water intakes were recorded at 1, 2, 4 and 6 h following treatment.
See Table 3 for experimental details, except that baseline measurements

[5] = food intake in 24 hr food-deprived rats; type: in vivo, rat; conditions: for Food Intake in Grams: Table 3, 24 hr; for Cumulative Food Intake in Grams: Table 4
Procedure: as §5, §6, §7
See Table 3 for experimental details, except that baseline measures were […]

T1 sequence (P41144 whole entry): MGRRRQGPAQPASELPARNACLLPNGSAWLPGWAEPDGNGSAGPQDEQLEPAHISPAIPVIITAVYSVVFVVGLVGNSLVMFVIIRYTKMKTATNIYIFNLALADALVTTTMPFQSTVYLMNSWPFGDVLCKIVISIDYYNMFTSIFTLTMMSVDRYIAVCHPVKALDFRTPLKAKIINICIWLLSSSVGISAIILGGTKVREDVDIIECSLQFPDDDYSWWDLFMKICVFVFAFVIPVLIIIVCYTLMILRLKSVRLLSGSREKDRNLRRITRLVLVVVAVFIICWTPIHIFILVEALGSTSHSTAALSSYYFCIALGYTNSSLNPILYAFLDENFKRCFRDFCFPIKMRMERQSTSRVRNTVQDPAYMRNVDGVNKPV
Sequence of delta-type opioid receptor (P33533 whole entry): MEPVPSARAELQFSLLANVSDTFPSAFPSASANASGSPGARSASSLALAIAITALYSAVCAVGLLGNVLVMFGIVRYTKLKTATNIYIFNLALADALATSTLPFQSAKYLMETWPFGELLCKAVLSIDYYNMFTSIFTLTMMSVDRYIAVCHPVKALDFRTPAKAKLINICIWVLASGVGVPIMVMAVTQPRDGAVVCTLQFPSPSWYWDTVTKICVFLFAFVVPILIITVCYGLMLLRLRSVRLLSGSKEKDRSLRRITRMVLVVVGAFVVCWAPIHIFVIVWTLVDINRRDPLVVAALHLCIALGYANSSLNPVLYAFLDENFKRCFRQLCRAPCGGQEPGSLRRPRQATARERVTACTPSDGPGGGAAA
T2 sequence (P33535 whole entry): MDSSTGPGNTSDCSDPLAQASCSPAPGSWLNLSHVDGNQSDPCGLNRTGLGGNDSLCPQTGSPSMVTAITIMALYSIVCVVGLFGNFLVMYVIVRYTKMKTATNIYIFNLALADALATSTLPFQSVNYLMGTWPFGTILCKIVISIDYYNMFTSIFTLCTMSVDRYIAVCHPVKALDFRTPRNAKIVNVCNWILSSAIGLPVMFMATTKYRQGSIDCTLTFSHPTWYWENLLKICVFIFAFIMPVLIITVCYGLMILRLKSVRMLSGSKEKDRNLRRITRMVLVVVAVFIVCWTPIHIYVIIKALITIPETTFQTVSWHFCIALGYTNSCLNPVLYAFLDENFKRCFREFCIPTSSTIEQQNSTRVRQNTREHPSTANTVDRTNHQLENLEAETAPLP

Oc1ccc2c3c1O[C@H]1C(=NOCCc4ccccc4)CC[C@@]4(O)[C@@H](C2)N(CC2CC2)CC[C@]314 [Example XXII, 6-[2-phenethyl]oximino-17-cyclopropylmethyl-4,5 α-epoxy-3,14-dihydroxymorphinan]
Ki [1]: 0.28 nM | fold more potent to inhibit specific [3H]EKC ([1]; than other compounds or naltrexone): 3 fold | Ki (mu-type opioid receptor): 0.88 nM | ED50 (tail flick response; Rattus norvegicus, Table 7, read-out: ED50, Antagonism of the Tail-Flick Response in the Rat): 4.02 mg/kg | antagonism of tail-flick response to heat (tail flick response; rat): effectively antagonized the tail-flick response to a heat stimulus in the rat | Ki [2]: 0.6 nM | ED50 (writhing response): 0.01 mg/kg | potency versus morphine to antagonize writhing response (writhing response; mouse, in vivo, ip): more potent than morphine to antagonize the writhing response | kappa selectivity and agonist activity (writhing response; writhing and tail flick): selective to kappa receptors and possess kappa agonist activity

C=C1CC[C@@]2(O)[C@H]3Cc4ccc(O)c5c4[C@@]2(CCN3CC2CC2)[C@H]1O5 [Nalmefene, reference compound]
Ki [1]: 0.89 nM | Ki (mu-type opioid receptor): 0.64 nM | ED50 [3]: 0.12 mg/kg | ED100 [3]: 1.35 mg/kg | Percent Antagonism at 1 Hr [3]: 85% | Percent Antagonism at 1.5 Hr [3]: 92% | Percent Antagonism at 2 Hr [3]: 83% | Percent Antagonism at 3 Hr [3]: 73% | Percent Antagonism at 4 Hr [3]: 46% | Percent Antagonism at 6 Hr [3]: 0% | Percent Antagonism at 8 Hr [3]: 37% | Ki [2]: 0.87 nM | ED50 (writhing response): > 30 mg/kg

O=C1CC[C@@]2(O)[C@H]3Cc4ccc(O)c5c4[C@@]2(CCN3CC2CC2)[C@H]1O5 [Naltrexone, naltrexone]
effect on water intake ([4]; 1 and 3 hr, lower dose experiment (FIGS. 24, 25)): inhibited drinking at all doses tested at the 1 and 3 hr time points | effect on water intake ([4]; 1 and 3 hr, lower dose experiment (FIGS. 24, 25), listed as naltrexone): effectively inhibited drinking at all doses tested during the first three hours after administration | effect on water intake ([4]; higher dose time course experiment, 0-6 hr): significant effects at 0-1 hr, 0-2 hr and 0-4 hr | Water Intake ([4]; S.C. 1.47 μmol/kg): 69.0 ± 3.5 mL | Water Intake ([4]; S.C. 2.93 μmol/kg): 62.4 ± 3.8 mL | Water Intake ([4]; S.C. 14.66 μmol/kg): 53.4 ± 5.5 mL | Water Intake ([4]; S.C. 29.33 μmol/kg): 66.0 ± 2.8 mL | Cumulative Water Intake ([4]; S.C. 14.66 μmol/kg, 0-1 Hr): 5.2 ± 1.1 mL | Cumulative Water Intake ([4]; S.C. 14.66 μmol/kg, 0-2 Hr): 9.2 ± 1.1 mL | Cumulative Water Intake ([4]; S.C. 14.66 μmol/kg, 0-4 Hr): 15.2 ± 2.0 mL | Cumulative Water Intake ([4]; S.C. 14.66 μmol/kg, 0-6 Hr): 22.8 ± 2.1 mL | Cumulative Water Intake ([4]; S.C. 29.33 μmol/kg, 0-1 Hr): 5.2 ± 0.6 mL | Cumulative Water Intake ([4]; S.C. 29.33 μmol/kg, 0-2 Hr): 8.4 ± 0.5 mL | Cumulative Water Intake ([4]; S.C. 29.33 μmol/kg, 0-4 Hr): 15.2 ± 1.1 mL | Cumulative Water Intake ([4]; S.C. 29.33 μmol/kg, 0-6 Hr): 21.6 ± 3.1 mL | Cumulative Water Intake ([4]; S.C. 58.65 μmol/kg, 0-1 Hr): 3.6 ± 0.8 mL | Cumulative Water Intake ([4]; S.C. 58.65 μmol/kg, 0-2 Hr): 6.8 ± 0.6 mL | Cumulative Water Intake ([4]; S.C. 58.65 μmol/kg, 0-4 Hr): 13.2 ± 1.3 mL | Cumulative Water Intake ([4]; S.C. 58.65 μmol/kg, 0-6 Hr): 22.4 ± 2.6 mL | Cumulative Water Intake ([4]; S.C. 117.30 μmol/kg, 0-1 Hr): 3.6 ± 0.8 mL | Cumulative Water Intake ([4]; S.C. 117.30 μmol/kg, 0-2 Hr): 9.2 ± 0.9 mL | Cumulative Water Intake ([4]; S.C. 117.30 μmol/kg, 0-4 Hr): 16.0 ± 1.6 mL | Cumulative Water Intake ([4]; S.C. 117.30 μmol/kg, 0-6 Hr): 26.8 ± 3.4 mL | effect on feeding ([5]; S.C., 1, 3 and 24 hr, lower dose experiment (FIGS. 22, 23)): 14.66 and 29.33 μmol/kg doses of naltrexone inhibited feeding at 3 hr following treatment | effect on feeding ([5]; S.C., higher dose time course experiment, 0-6 hr): at all doses decreased feeling up to 4 hr after administration, and the two lower doses also decreased feeding at 6 hr post treatment | Food Intake in Grams ([5]; S.C. 1.47 μmol/kg): 33.0 ± 0.7 Grams | Food Intake in Grams ([5]; S.C. 2.93 μmol/kg): 33.2 ± 3.0 Grams | Food Intake in Grams ([5]; S.C. 14.66 μmol/kg): 37.6 ± 4.2 Grams | Food Intake in Grams ([5]; S.C. 29.33 μmol/kg): 40.7 ± 8.2 Grams | Cumulative Food Intake in Grams ([5]; S.C. 14.66 μmol/kg, 0-1 Hr): 3.6 ± 0.5 Grams | Cumulative Food Intake in Grams ([5]; S.C. 14.66 μmol/kg, 0-2 Hr): 3.6 ± 0.5 Grams | Cumulative Food Intake in Grams ([5]; S.C. 14.66 μmol/kg, 0-4 Hr): 4.0 ± 0.0 Grams | Cumulative Food Intake in Grams ([5]; S.C. 14.66 μmol/kg, 0-6 Hr): 5.2 ± 0.6 Grams | Cumulative Food Intake in Grams ([5]; S.C. 29.33 μmol/kg, 0-1 Hr): 3.2 ± 0.6 Grams | Cumulative Food Intake in Grams ([5]; S.C. 29.33 μmol/kg, 0-2 Hr): 3.2 ± 0.6 Grams | Cumulative Food Intake in Grams ([5]; S.C. 29.33 μmol/kg, 0-4 Hr): 4.4 ± 0.5 Grams | Cumulative Food Intake in Grams ([5]; S.C. 29.33 μmol/kg, 0-6 Hr): 5.2 ± 0.9 Grams | Cumulative Food Intake in Grams ([5]; S.C. 58.65 μmol/kg, 0-1 Hr): 2.8 ± 1.1 Grams | Cumulative Food Intake in Grams ([5]; S.C. 58.65 μmol/kg, 0-2 Hr): 2.8 ± 1.1 Grams | Cumulative Food Intake in Grams ([5]; S.C. 58.65 μmol/kg, 0-4 Hr): 3.2 ± 0.9 Grams | Cumulative Food Intake in Grams ([5]; S.C. 58.65 μmol/kg, 0-6 Hr): 6.4 ± 0.5 Grams | Cumulative Food Intake in Grams ([5]; S.C. 117.30 μmol/kg, 0-1 Hr): 3.6 ± 0.8 Grams | Cumulative Food Intake in Grams ([5]; S.C. 117.30 μmol/kg, 0-2 Hr): 3.6 ± 0.8 Grams | Cumulative Food Intake in Grams ([5]; S.C. 117.30 μmol/kg, 0-4 Hr): 4.8 ± 0.9 Grams | Cumulative Food Intake in Grams ([5]; S.C. 117.30 μmol/kg, 0-6 Hr): 7.6 ± 1.3 Grams | food intake in 4-6 hr interval ([5]; food intake/2 hr interval, FIGS. 26 and 27): rats treated with the two highest doses of naltrexone are beginning to resume feeding; also recorded: an increase in food consumption at some doses compared to controls | time course of antagonism of OMZ-induced analgesia, PO ([3]; PO, naltrexone 26.53 μmol/kg): a trend for progressive loss of the antagonistic effect over 0.5-4.0 hours, although the reversal was not complete by eight hours | ED50 [3]: 0.07 mg/kg | ED100 [3]: 0.62 mg/kg | Percent Antagonism at 1 Hr [3]: 98% | Percent Antagonism at 1.5 Hr [3]: 76% | Percent Antagonism at 2 Hr [3]: 79% | Percent Antagonism at 3 Hr [3]: 47% | Percent Antagonism at 4 Hr [3]: 30% | Percent Antagonism at 6 Hr [3]: 4% | Percent Antagonism at 8 Hr [3]: 4% | duration of antagonism of OMZ-induced analgesia, SC ([3]; SC, naltrexone 1.33 μmol/kg, OMZ 19 μmol/kg SC): up to 1 hr | ED50 (writhing response): > 30 mg/kg
